GI50 and TGI data for 15 compounds are collected here from PubChem BioAssay (NCI).

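Each compound was tested at five concentrations against cells in 96-well plates for 48 hours. At the GI50, growth is halved. TGI is the concentration that stops growth completely.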

Common to all, as to test: DTP human tumour cell line panel, 48 h
In test [1] the test system is U251 CNS.
In test [2] the test system is LOX IMVI melanoma.
For test [3], the system named is SF-539 CNS.
Test [4] deals with RXF 393 renal.
The test system of test [5] is UACC-62 melanoma.
Test [6] deals with HS 578T breast.
The subject of test [7] is SF-295 CNS.
Test [8] has as its system MALME-3M melanoma.
In test [9] the test system is NCI/ADR-RES ovarian.
Test [10] relates to IGROV1 ovarian.

As a reminder, the GI50 is the concentration at which growth is held to half of that of the control. Usually TGI stands for the concentration at which net growth stops. Higher therefore signals less potent growth arrest. For the compound `CCN1Cc2c(ccc(F)c2C#N)O[C@@H](C)CNC(=O)c2c(N)nn3ccc1nc23`, the GI50 in test [1] is 5.34 µM; in test [2], 1.13 µM; in test [3], 3.46 µM; in test [4], 0.46 µM; in [5], 0.632 µM; in test [6], 0.652 µM. Besides, the GI50 in test [7] is 0.0758 µM; in [8] it was 1.15 µM; in [9] it was 6.03 µM; in test [10] it was 0.682 µM. In addition, the TGI in test [1] worked out at 32.4 µM; in [2], 6.9 µM; in test [3], 15.8 µM; in test [4], 3.67 µM; in test [5], 3.65 µM; in test [6], 4.71 µM. Besides, the TGI in [7] came to 10.3 µM; in test [8] it was 7.4 µM; in test [9], 56.3 µM; in test [10], 13 µM.

With `C=C1C(=O)O[C@H]2[C@H]1CCC(/C=N/c1ncc(Br)cc1N)=C\CC[C@@]1(C)O[C@@H]21`, the GI50 in test [1] is 5.06 µM; in test [2], 1.71 µM; in test [3] it was 2.06 µM; in test [4], 1.38 µM; in test [5], 1.87 µM; in [6], 5.65 µM. In addition, the GI50 in test [7] is 10.4 µM; in test [8] it was 1.55 µM; in [9] it was 3.11 µM; in test [10], 2.11 µM. Also, the TGI was determined as 18.1 µM in test [1]; 3.46 µM in test [2]; 6.82 µM in test [3]; 2.9 µM in [4]; 4.22 µM in test [5]; 40.1 µM in test [6]. Moreover, the total growth inhibition concentration (TGI) in test [7] is 24.3 µM; in [8], 3.6 µM; in test [9], 21.9 µM; in test [10], 7.44 µM.

Take `CC(NCCC(=O)N(CCC(=O)N(CCC(=O)N(CCC(=O)N(CCC(=O)N(CCC(=O)N(CCC(=O)N(CCC(=O)N(CCC(=O)N(CCC(=O)O)[C@H](C)c1ccccc1)[C@H](C)c1ccccc1)[C@H](C)c1ccccc1)[C@H](C)c1ccccc1)[C@H](C)c1ccccc1)[C@H](C)c1ccccc1)[C@H](C)c1ccccc1)[C@H](C)c1ccccc1)[C@H](C)c1ccccc1)c1ccccc1` (stereo not given in full): the GI50 in [1] is 2.82 µM; in test [2] it was 1.17 µM; in test [3], 1.49 µM; in test [4] it was 1.47 µM; in [5], 1.32 µM; in [6], 2.54 µM. Moreover, the GI50 in test [7] was 1.92 µM; in [8] it was 2.04 µM; in test [9] it was more than 75 µM; in [10], 0.872 µM. Also, the total growth inhibition concentration (TGI) was 11.1 µM in [1]; 2.37 µM in test [2]; 3.67 µM in [3]; 3.78 µM in [4]; 2.96 µM in test [5]; more than 57.3 µM in [6]. Further, the total growth inhibition concentration (TGI) was 5.55 µM in [7], 5.91 µM in test [8], more than 75 µM in test [9] and 15 µM in test [10].

Consider `O=C(O)c1cc(-c2ccncc2)nc2ccccc12`, for which the concentration for total growth inhibition (TGI) in test [1], in test [2], in [3], in [4], in [5] and in test [6] was more than 100 µM each time. The total growth inhibition concentration (TGI) in [7], in test [8], in [9] and in test [10] was more than 100 µM each time.

Turning to `Oc1ccccc1C=Nc1nc(SCc2ccccc2)nc2[nH]ncc12`, the GI50 was 46.4 µM in [1]; 56.3 µM in test [2]; more than 100 µM in [3]; 32.5 µM in test [4]; 28.1 µM in test [5]; 11 µM in [6]. For the same compound, the GI50 in test [7] was 52 µM; in test [8], 34.8 µM; in [9], 43.8 µM; in test [10] it was more than 100 µM. Besides, the total growth inhibition concentration (TGI) in test [1] is more than 100 µM; in test [2] it was more than 100 µM; in [3], more than 100 µM; in test [4], more than 100 µM; in test [5], 73.7 µM; in [6], 44.7 µM. Also, the TGI in test [7], in [8], in [9] and in test [10] was more than 100 µM each time.

As to `CC(=O)OCC(=O)[C@@]12OC(C)(C)O[C@@H]1C[C@H]1[C@@H]3CC=C4C[C@@H](O)CC[C@]4(C)[C@H]3CC[C@@]12C`, the TGI was more than 100 µM in test [1]; more than 100 µM in [2]; 74.7 µM in test [3]; 61.4 µM in [4]; more than 100 µM in [5]; 63.4 µM in test [6]. The concentration for total growth inhibition (TGI) in test [7], in [8], in test [9] and in test [10] was more than 100 µM each time.

For the compound `Cc1ccc2c(c1)C(C)Cc1c(Cl)ncnc1N2C` (stereo not given), the GI50 is 4.43 µM in [1]; 1.8 µM in test [2]; 3.85 µM in test [3]; 2.87 µM in test [4]; 3.72 µM in [5]; 1.89 µM in [6]. The GI50 in test [7] is 3.12 µM; in test [8], 1.76 µM; in test [9], 2.73 µM; in [10] it was 3.39 µM. Moreover, the concentration for total growth inhibition (TGI) came to 67.9 µM in [1]; 3.78 µM in test [2]; 19 µM in test [3]; 8.62 µM in test [4]; 21.8 µM in [5]; 34 µM in [6]. Moreover, the TGI worked out at 25.2 µM in [7], 6.5 µM in test [8], 23.1 µM in [9] and 36.4 µM in test [10].

Regarding `O=C1C2C(c3ccccc3)NC(c3ccccc3)C1C(c1ccccc1)NC2c1ccccc1` (stereo not given), the TGI in [1], in test [2], in [3], in [4], in test [5] and in test [6] was more than 100 µM throughout. Further, the total growth inhibition concentration (TGI) in test [7], in test [8], in test [9] and in test [10] was more than 100 µM throughout.

With `O=c1oc2cc(N=Cc3ccc4c(c3)OCO4)ccc2c2ccccc12`, the total growth inhibition concentration (TGI) was more than 100 µM in test [1]; more than 100 µM in test [2]; more than 100 µM in test [3]; 67.2 µM in test [4]; more than 100 µM in [5]; more than 100 µM in test [6]. The concentration for total growth inhibition (TGI) in [7], in [8], in test [9] and in test [10] was more than 100 µM in each case.

Turning to `CCCCCCCCCCCCOC1C(C(COC2OC(C3COC(C)(C)O3)C3OC(C)(C)OC23)NC(=O)NS(=O)(=O)c2ccccc2)OC2OC(C)(C)OC21` (stereo not given), the GI50 in [1] was 3.14 µM; in test [2], 5.22 µM; in [3] it was 2.53 µM; in test [4] it was 3.02 µM; in [5], 3.27 µM; in [6], 2.9 µM. In addition, the GI50 in [7] was 3.52 µM; in test [8], 13.7 µM; in [9] it was 7.18 µM; in [10] it was 2.53 µM. Besides, the TGI in [1] was 9.77 µM; in test [2], 19.7 µM; in test [3], 6.54 µM; in test [4] it was 7.47 µM; in [5] it was 13.7 µM; in [6], 11.1 µM. Further, the concentration for total growth inhibition (TGI) was determined as 16.6 µM in test [7], 41.8 µM in [8], 23.6 µM in test [9] and 11.2 µM in [10].

As for `CC(C)COCC(CN(Cc1ccccc1)c1ccccc1)N1CCCC1` (stereo not given), the GI50 was 3.24 µM in test [1]; 2.48 µM in test [2]; 6.46 µM in test [3]; 1.76 µM in [4]; 2.87 µM in [5]; 3.6 µM in test [6]. Also, the GI50 was 2.02 µM in test [7], 1.89 µM in test [8], 3.12 µM in [9] and 3.18 µM in test [10]. Moreover, the concentration for total growth inhibition (TGI) in test [1] stood at 13.3 µM; in [2], 8.2 µM; in test [3] it was 19.4 µM; in [4], 6.37 µM; in test [5], 12.5 µM; in test [6], 18.2 µM. Moreover, the TGI in test [7] came out at 6.5 µM; in test [8] it was 4.74 µM; in test [9], 14.4 µM; in test [10] it was 15 µM.

For `COc1ccc(S(=O)(=O)Nc2cc(/C=C\c3cc(OC)c(OC)c(OC)c3)ccc2OC)cc1`, the 50% growth inhibitory concentration (GI50) is 0.108 µM in [1]; 0.272 µM in test [2]; 0.126 µM in test [3]; 0.0814 µM in test [4]; 0.049 µM in test [5]; 0.226 µM in test [6]. Also, the GI50 in [7] is 0.0393 µM; in [8], 0.0527 µM; in [9], 0.0711 µM; in [10] it was 0.166 µM. In addition, the TGI in test [1] is more than 100 µM; in [2], more than 100 µM; in test [3], 0.713 µM; in test [4], more than 100 µM; in [5], more than 100 µM; in test [6], more than 100 µM. Moreover, the concentration for total growth inhibition (TGI) is 70.9 µM in test [7], 61.1 µM in test [8], 30.8 µM in [9] and more than 100 µM in [10].

Take `NC1=C(c2nc(-c3ccccc3)cs2)C(c2ccc(Br)cc2)c2c(c3ccccc3oc2=O)O1` (stereo not given): the GI50 was 48.2 µg/mL in test [1]; more than 150 µg/mL in test [2]; 104 µg/mL in [3]; 40.7 µg/mL in [4]; 52.1 µg/mL in test [5]; 30.4 µg/mL in test [6]. The GI50 in test [7] was more than 150 µg/mL; in test [8], more than 150 µg/mL; in [9], more than 150 µg/mL; in test [10], 96 µg/mL. The TGI in test [1] is more than 150 µg/mL; in test [2], more than 150 µg/mL; in test [3] it was more than 150 µg/mL; in test [4] it was 141 µg/mL; in [5], more than 150 µg/mL; in test [6], 91.4 µg/mL. Also, the TGI in [7], in test [8], in [9] and in test [10] was more than 150 µg/mL each time.

As to `COc1cc(NC(=O)CSc2nc3ccc(C)cc3c(=O)n2Cc2ccccc2)cc(OC)c1OC`, the GI50 is 3.93 µM in [1]; 55 µM in test [2]; 3.46 µM in test [3]; 2.24 µM in test [4]; 2.93 µM in [5]; 3.23 µM in [6]. The GI50 was 7.01 µM in test [7], 4.07 µM in test [8], 8.97 µM in test [9] and 32.5 µM in test [10]. The concentration for total growth inhibition (TGI) is 24 µM in [1]; more than 100 µM in test [2]; 13.8 µM in [3]; 8.23 µM in test [4]; more than 100 µM in test [5]; more than 100 µM in test [6]. The TGI in [7] was more than 100 µM; in test [8], 31.3 µM; in test [9], more than 100 µM; in test [10], more than 100 µM.

Regarding `Nc1nc(N)c2c(n1)NC(c1ccc(F)cc1)C1CCc3ccccc3C1=N2` (stereo not given), the GI50 in test [1] is 4.29 µM; in [2], 3.98 µM; in test [3], 10.5 µM; in [4], 5.48 µM; in test [5], 3.76 µM; in test [6], 10.2 µM. The GI50 was 1.71 µM in test [7], 2.52 µM in test [8], 3.19 µM in test [9] and 7.79 µM in test [10]. Besides, the concentration for total growth inhibition (TGI) in test [1] stood at 16.9 µM; in test [2], 16.1 µM; in [3] it was 22.4 µM; in test [4], 20 µM; in [5] it was 17.7 µM; in test [6] it was 34.6 µM. In addition, the TGI in [7] came out at 6.18 µM; in test [8], 15 µM; in test [9], 11.4 µM; in [10] it was 24.1 µM.
